# In patent US20210000879A1, “METHODS AND COMPOSITIONS FOR MRNA-BASED MODULATION AND DETECTION OF CELL PHENOTYPES” (Georgia Tech Research Corporation, priority 2018, published 2021):
# Experiments:
# [1] = test system: complete atrioventricular block (CAVB) model in rats; experiment: 3-lead surface ECG in rat complete atrioventricular block model; type: in vivo
# Method: (§1) The inventors next studied the effects of administering TBX18 mRNA to a rat model of a complete atrioventricular block. […] In this study, the inventors created a complete atrioventricular block (CAVB) model in rats and monitored the rats for one week to confirm stable and persistent CAVB. Next, TBX18 mRNA was injected into the ventricular apex of each rat and a telemetry device was implanted. Some rats received a high dose of TBX18 mRNA, which was 300 μg TBX mRNA with 205 μl RNA free PBS. The inventors continuously monitored and recorded data from the telemetry device including electrocardiograms for 21 days. The inventors performed 3-lead surface ECGs on anesthetized animals on days 7, 14 and 21 with an isoproterenol challenge, and harvested the heart on day 21.
# The inventors determined if there was antegrade conduction (meaning that the direction of cardiac conduction occurred from the SA node, AV node and down toward the apex of the heart) or retrograde conduction (meaning that the direction of cardiac conduction occurred from the site of TBX18 delivery which was the apex of the left ventricle). In order to determine this, the inventors determined a baseline ECG under anesthesia before TBX18 mRNA injection by recording three-lead surface ECGs for ten minutes while the rat was asleep under anesthesia. Recordings confirmed the presence of AV conduction block with multiple P waves between each QRS complex, inconsistent P-R intervals, and a relatively low heart rate of 100 bpm, compared to a healthy rate of over 300 bpm for rats.
# [2] = test system: neonatal rat ventricular cardiomyocytes; experiment: TBX18 IVT mRNA entry by qPCR normalized to GAPDH; type: cell-based; details: 333 ng mRNA with ViroMer Red, 96-well plate
# Method: Freshly-isolated neonatal rat ventricular cardiomyocytes were transfected with IVT mRNA for human TBX18 gene. Somatic gene transfer was performed by adding 333 ng of TBX18 IVT mRNA with a transfection reagent, ViroMer Red, to a well in a 96-well plate seeded with the neonatal rat ventricular cardiomyocytes. TBX18 IVT mRNA that successfully entered the cardiomyocytes were quantitated by quantitative real-time PCR (qPCR), and the TBX18 mRNA level was normalized to an endogenous housekeeping gene, GAPDH, over time.
# [3] = test system: porcine model of complete heart block; experiment: Porcine model of complete heart block; type: in vivo, pig
# Excerpt: The inventors next sought to test the TBX18 mRNA in a large animal model, specifically a porcine model, of complete heart block. The inventors used a control of GFP mRNA+A83-01. On Day 1, the inventors created an intracardiac map by implanting a pacemaker and administered the TBX18 mRNA or control. Weeks 2, 4, and 6 after administration included an interrogation of the pacemaker and an isoproterenol challenge to measure the animals' maximum heart rate (max HR). In Week 6, arrythmia testing and intracardiac mapping were performed and vital organs were harvested. […] The proper diurnal response in TBX18-injected pig is in line with the average heart rate data from FIG. 18.
# [4] = test system: complete atrioventricular block (CAVB) model in rats; experiment: Telemetry ECG in conscious rats with complete atrioventricular block; type: in vivo, rat; details: for heart rate during isoproterenol treatment: conscious
# Method: as §1
# ECG data was then compared with telemetry data. Before injection of TBX18 mRNA, telemetry biopotential electrodes were sutured to the chest wall and housed in the abdominal cavity of the rat. Telemetry 2-lead ECG signal was recorded wirelessly for conscious, awake rats. The day before injection of TBX18 mRNA, AV block was present in ECG recordings with an average heart rate of 120 bpm, and these values were used as the baseline.
# [5] = test system: neonatal rat ventricular cardiomyocytes; experiment: TBX18 protein expression by immunoblot normalized to GAPDH; type: cell-based; details: 333 ng mRNA with ViroMer Red, 96-well plate
# Method: Freshly-isolated neonatal rat ventricular cardiomyocytes were transfected with IVT mRNA for human TBX18 gene. Somatic gene transfer was performed by adding 333 ng of TBX18 IVT mRNA with a transfection reagent, ViroMer Red, to a well in a 96-well plate seeded with the neonatal rat ventricular cardiomyocytes. TBX18 protein expression from the transfected IVT mRNA in the cardiomyocytes were quantitated by specific antibodies to TBX18 on immunoblots and normalized to an endogenous housekeeping protein, GAPDH. […] The TBX18 protein expression was also transient, in line with the expression kinetics of the delivered mRNA. This transient expression of TBX18 closely mimicked its native expression during embryonic development, and is ideal for the intended purpose as a reprogramming agent to convert ordinary heart muscle cells to specialized cardiac pacemaker cells. In FIG. 12, D denotes days after transfection, and each time point consists of two technical replicates.
# [6] = test system: rat model of complete heart block; experiment: Effect of TGF-beta small molecule inhibitor on ventricular pacing with TBX18 mRNA; type: in vivo; details: A83-01 released by osmotic pump
# Method: On Day 0, an osmotic pump releasing A83-01 (a TGF-beta inhibitor, Sigma Aldrich) was implanted into the rats. On Day 1, TBX18 mRNA was injected into the rats and a telemetry device was also implanted. Two doses of TBX18 mRNA were given to the rats: (i) a low dose of 100 μg TBX18 mRNA with 68.4 μl RNA-free phosphate-buffered saline (PBS), or (ii) a high dose of 300 μg TBX18 mRNA with 205 μl RNA-free PBS. A continuous telemetry recording of each rat's electrocardiogram (ECG) was made for 21 days after implantation of the telemetry device. In addition, 3-lead surface ECGs were performed on anesthetized animals on Days 7, 14, and 21 along with an isoproterenol challenge. The heart was harvested from each animal on Day 21.
# The inventors then determined the effects of including a TGF-beta small molecule inhibitor on ventricular pacing with TBX18 mRNA (FIG. 16).
# [7] = test system: neonatal rat ventricular myocytes; experiment: Spontaneous electrical activity on multi-electrode array; type: cell-based; details: control cardiomyocytes: infrequent and low rate activity
# Method: Spontaneous electrical activity from neonatal rat ventricular myocytes were recorded on a non-invasive, multi-electrode array platform. […] The number of electrical activity (Count) was plotted as a function of spontaneous beating rates (in beats per minute, BPM) of the cardiomyocytes.
# [8] = test system: neonatal rat ventricular cardiomyocytes; experiment: Nuclear localization of TBX18 (FLAG) by immunostaining; type: cell-based; details: 24 hrs post-transfection
# Excerpt: TBX18 is a transcription factor, and thus should be targeted to the nuclei upon proper translation from mRNA. Freshly-isolated neonatal rat ventricular cardiomyocytes were transfected with IVT mRNA for human TBX18 gene. TBX18 mRNA was designed with a tag peptide (DYKDDDDK (SEQ ID NO:9, also known as a “FLAG” epitope) fused to the C-terminal end of TBX18 for subcellular identification of TBX18 with an antibody against FLAG. Sarcomeric alpha-actinin (α-SA) and DAPI label cardiomyocytes and all nuclei, respectively. Arrows (co-localization of FLAG and DAPI) indicate nuclear localization of TBX18 protein. Three transfection conditions were tested in a 24-well plate, and immunostaining was performed at 24 hrs post-transfection.
substance,measurement,setting,value
"TBX18 mRNA: IVT mRNA for human TBX18 gene, with FLAG tag peptide fused to the C-terminal end of TBX18",biological cardiac pacing,[1]; focal intramyocardial injection into ventricular apex,created in vivo biological cardiac pacing
same,conduction vector (cardiac axis mapping),"[1]; one week after injection, baseline 77 degrees",49 degrees
same,heart rate with isoproterenol,"[1]; one week after injection, isoproterenol challenge",229 bpm
same,average heart rate,"[1]; one week after injection, under anesthesia, baseline 100 bpm",120 bpm
same,average heart rate,[1]; three weeks after injection,137 bpm
same,conduction vector of normal QRS complexes,"[1]; three weeks after injection, anterograde",48 degrees
same,conduction vector of transient QRS complexes with isoproterenol,"[1]; three weeks after injection, isoproterenol, retrograde",−110 degrees
same,conduction vector of PVCs,"[1]; three weeks after injection, retrograde",−116 degrees
same,entry of IVT mRNA into cardiomyocytes,[2],efficient entry
same,R-R interval as the pig becomes awake in the morning,[3]; diurnal response,shorter R-R interval (faster heart rate)
same,time after delivery within which ventricular pacing was created,"[3]; pig, in vivo",7 to 10 days
same,ventricular pacing by continuous recording of heart rate and heart rate histograms,[4]; histograms on Days 21 after injection,created ventricular pacing
same,heart rate during isoproterenol treatment,"[4]; one week after delivery, baseline 120 bpm",265 bpm
same,heart rate during isoproterenol treatment,[4]; three weeks after delivery,260 bpm
same,heart rate during isoproterenol treatment,[4]; two weeks after delivery,206 bpm
same,time post-transfection to TBX18 protein expression,[5],less than 6 hours
same,effect on ventricular pacing / block,[6],created a complete ventricular block
same,spontaneous pacemaker activity,[7],"highly active, high rate pacemaker activity"
same,cardiomyocytes positive for nuclear TBX18 (FLAG positive),[8]; 0.5 μg of IVT mRNA+0.2 μl of ViroMer Red,4%
same,cardiomyocytes positive for nuclear TBX18 (FLAG positive),[8]; 1 μg of IVT mRNA+0.1 μl of ViroMer Red,2%
same,cardiomyocytes positive for nuclear TBX18 (FLAG positive),[8]; 1 μg of IVT mRNA+0.2 μl of ViroMer Red,21%
